Measurements as given in US9567336B2, “Conjugated TLR7 and/or TLR8 and TLR2 agonists” (CAYLA, priority 2012, dated 2017).

What was measured:
[1] = tested on: NF-κB in RAW-Blue™ Cells (RAW 264.7, endogenous TLR7 and TLR2); experiment: RAW-Blue Cells NF-κB/AP-1 inducible SEAP reporter assay; assay type: cell-based, mouse; settings: murine monocytic macrophage cell line RAW 264.7, 24 hours, OD at 655 nm; FIGS. 5A, 5B
Description: (§1) Some conjugated compounds of the invention were tested for their ability to activate TLR7 and TLR2 receptor signaling. Cell-based assays were carried out using TLR7 and TLR2 reporter cell lines (InvivoGen). The reporter cell lines are engineered HEK293 cells, a human embryonic kidney cell line (ATCC, CRL-1573) that stably express either murine TLR7 (HEK-Blue™ mTLR7) or human TLR7 (HEK-Blue™ hTLR7) or murine TLR2 (HEK-Blue™ mTLR2) or human TLR2 (HEK-Blue™ hTLR2) with an NF-κB-inducible secreted embryonic alkaline phosphatase (SEAP) as the reporter gene. The SEAP reporter gene is placed under the control of the NF-κB and AP-inducible promoter. Stimulation with the corresponding TLR ligand activates NF-κB and AP-1, which induces the production of SEAP. Detection of SEAP is measured following culturing cells in HEK-Blue™ Detection media (InvivoGen). HEK-Blue™ Detection contains a SEAP substrate, which upon hydrolysis by SEAP produces a colorimetric change allowing for detection of SEAP as the protein is secreted. […] These assays were carried out using RAW-Blue™ Cells (InvivoGen), derived from RAW 264.7 mouse leukemic monocytic macrophage cell line (ATCC, CRL 2278) stably overexpressing a NF-κB/AP-1 inducible SEAP reporter constructs.
(§2) To perform the assay, cells were seeded on 96 well microliter plates at 50,000 or 100,000 cells per well for HEK-Blue™ Cells and RAW-Blue™ Cells respectively, and cultured at 37° C. in the presence of the conjugated compounds. The conjugated compounds were prepared as follows: First, stock solutions of the small molecule conjugated compounds of the invention were prepared in ethanol or water to a concentration of 10 mg/ml. A working dilution of the conjugated TLR7-TLR2 small molecules was made up in water and added to cells at a final range of concentrations from 10 μg/mL to 10 pg/ml. The working dilutions of the conjugated TLR7-TLR2 small molecules as the stated concentrations were directly added to the reporter cell lines and incubated at 37° C. for 24 hours. After 24 hours of incubation, the effect on reporter gene activity was determined by reading the OD at 655 nm using iMark™ Microplate Reader (BIO-RAD).
(§3) The conjugated compounds were tested alone for their ability to specifically activate TLR7 and TLR2, alongside the known TLR7 activators R848 or CL264 (InvivoGen) and the TLR2 agonists Pam2CSK4 or Pam3CSK4 (InvivoGen). The specificity of the TLR activity was determined by use of reporter cell lines to the other TLRs (data not shown). […] The molecules show a tendency to activate mouse TLR7 with greater sensitivity than human TLR7. […] Furthermore, dose-dependent responses of the conjugated compounds indicate significant TLR activities of TLR7 and TLR2 compared to the corresponding controls.

human TLR7 = target: T1, human TLR7 (Homo sapiens, UniProt Q9NYK1); experiment: HEK-Blue hTLR7 NF-κB/AP-1 SEAP reporter cell assay; assay type: cell-based; settings: HEK-Blue hTLR7 reporter cells, 10 μg/mL to 10 pg/ml, 24 hours, OD at 655 nm; FIGS. 1A, 1B
T1 construct: host or cells: HEK293 (HEK-Blue hTLR7)
T1 sequence (Q9NYK1 27-1049): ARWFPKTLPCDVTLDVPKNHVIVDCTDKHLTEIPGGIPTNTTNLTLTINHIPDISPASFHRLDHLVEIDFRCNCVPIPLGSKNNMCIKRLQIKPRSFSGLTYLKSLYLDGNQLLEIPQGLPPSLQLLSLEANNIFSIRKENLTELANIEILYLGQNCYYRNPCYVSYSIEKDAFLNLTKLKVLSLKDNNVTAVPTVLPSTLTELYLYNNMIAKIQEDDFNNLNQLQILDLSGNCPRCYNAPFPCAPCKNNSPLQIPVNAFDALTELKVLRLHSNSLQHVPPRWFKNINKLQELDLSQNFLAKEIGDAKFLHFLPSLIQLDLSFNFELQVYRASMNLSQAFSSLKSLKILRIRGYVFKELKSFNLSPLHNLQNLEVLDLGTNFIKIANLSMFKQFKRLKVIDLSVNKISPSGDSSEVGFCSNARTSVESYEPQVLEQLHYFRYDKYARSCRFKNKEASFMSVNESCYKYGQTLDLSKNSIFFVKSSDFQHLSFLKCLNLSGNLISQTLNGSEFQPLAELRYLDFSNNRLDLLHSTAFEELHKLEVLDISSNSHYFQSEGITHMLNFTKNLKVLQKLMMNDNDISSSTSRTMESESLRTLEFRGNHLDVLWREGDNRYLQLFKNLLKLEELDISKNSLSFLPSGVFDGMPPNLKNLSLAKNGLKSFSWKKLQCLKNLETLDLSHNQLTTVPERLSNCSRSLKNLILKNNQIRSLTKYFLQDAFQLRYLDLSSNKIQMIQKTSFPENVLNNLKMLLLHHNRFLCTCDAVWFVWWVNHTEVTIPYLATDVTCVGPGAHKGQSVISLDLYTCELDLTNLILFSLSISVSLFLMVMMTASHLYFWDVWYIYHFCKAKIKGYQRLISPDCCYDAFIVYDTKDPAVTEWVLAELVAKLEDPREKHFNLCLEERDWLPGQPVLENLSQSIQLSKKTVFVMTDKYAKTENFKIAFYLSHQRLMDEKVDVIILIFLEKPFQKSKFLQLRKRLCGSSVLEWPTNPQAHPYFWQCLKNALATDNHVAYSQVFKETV
Description: as §1, §2, §3

murine TLR7 = target: T2, murine TLR7 (Mus musculus, UniProt P58681); experiment: HEK-Blue mTLR7 NF-κB/AP-1 SEAP reporter cell assay; assay type: cell-based; settings: HEK-Blue mTLR7 reporter cells, 10 μg/mL to 10 pg/ml, 24 hours, OD at 655 nm; FIGS. 2A, 2B
T2 construct: host or cells: HEK293 (HEK-Blue mTLR7)
T2 sequence (P58681 27-1050): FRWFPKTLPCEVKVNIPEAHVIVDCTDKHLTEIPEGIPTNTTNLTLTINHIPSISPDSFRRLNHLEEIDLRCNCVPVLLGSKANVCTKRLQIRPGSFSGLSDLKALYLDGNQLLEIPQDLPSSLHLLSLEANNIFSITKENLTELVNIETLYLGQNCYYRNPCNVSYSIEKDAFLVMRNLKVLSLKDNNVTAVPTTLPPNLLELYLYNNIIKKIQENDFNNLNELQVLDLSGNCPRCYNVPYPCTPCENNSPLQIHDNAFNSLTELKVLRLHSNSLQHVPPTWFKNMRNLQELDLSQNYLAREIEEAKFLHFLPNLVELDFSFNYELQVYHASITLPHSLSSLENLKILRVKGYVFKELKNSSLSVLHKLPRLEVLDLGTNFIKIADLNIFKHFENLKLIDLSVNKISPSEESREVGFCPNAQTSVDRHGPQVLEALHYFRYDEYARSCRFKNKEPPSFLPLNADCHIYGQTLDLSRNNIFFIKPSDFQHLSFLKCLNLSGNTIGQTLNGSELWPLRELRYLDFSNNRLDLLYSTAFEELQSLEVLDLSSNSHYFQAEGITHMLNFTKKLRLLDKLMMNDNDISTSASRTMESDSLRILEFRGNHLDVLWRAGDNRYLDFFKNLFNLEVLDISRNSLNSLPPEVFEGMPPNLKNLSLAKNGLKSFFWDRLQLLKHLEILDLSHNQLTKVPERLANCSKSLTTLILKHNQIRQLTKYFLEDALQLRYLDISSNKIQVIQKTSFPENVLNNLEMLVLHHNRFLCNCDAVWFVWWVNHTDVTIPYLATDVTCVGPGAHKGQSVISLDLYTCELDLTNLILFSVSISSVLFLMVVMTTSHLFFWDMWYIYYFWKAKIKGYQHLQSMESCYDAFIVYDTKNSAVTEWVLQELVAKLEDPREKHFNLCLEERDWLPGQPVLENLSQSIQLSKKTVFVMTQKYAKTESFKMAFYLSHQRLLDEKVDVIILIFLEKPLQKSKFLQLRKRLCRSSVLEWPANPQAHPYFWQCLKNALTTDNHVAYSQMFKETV
Description: as §1, §2, §3

murine TLR2 = target: T3, murine TLR2 (Mus musculus, UniProt Q9QUN7); experiment: HEK-Blue mTLR2 NF-κB/AP-1 SEAP reporter cell assay; assay type: cell-based; settings: HEK-Blue mTLR2 reporter cells, 10 μg/mL to 10 pg/ml, 24 hours, OD at 655 nm; FIG. 4
T3 construct: host or cells: HEK293 (HEK-Blue mTLR2)
Description: as §1, §2, §3

human TLR2 = target: T4, human TLR2 (Homo sapiens, UniProt O60603); experiment: HEK-Blue hTLR2 NF-κB/AP-1 SEAP reporter cell assay; assay type: cell-based; settings: HEK-Blue hTLR2 reporter cells, 10 μg/mL to 10 pg/ml, 24 hours, OD at 655 nm; FIGS. 3A, 3B
T4 construct: host or cells: HEK293 (HEK-Blue hTLR2)
Description: as §1, §2, §3

T4 sequence (O60603 21-784): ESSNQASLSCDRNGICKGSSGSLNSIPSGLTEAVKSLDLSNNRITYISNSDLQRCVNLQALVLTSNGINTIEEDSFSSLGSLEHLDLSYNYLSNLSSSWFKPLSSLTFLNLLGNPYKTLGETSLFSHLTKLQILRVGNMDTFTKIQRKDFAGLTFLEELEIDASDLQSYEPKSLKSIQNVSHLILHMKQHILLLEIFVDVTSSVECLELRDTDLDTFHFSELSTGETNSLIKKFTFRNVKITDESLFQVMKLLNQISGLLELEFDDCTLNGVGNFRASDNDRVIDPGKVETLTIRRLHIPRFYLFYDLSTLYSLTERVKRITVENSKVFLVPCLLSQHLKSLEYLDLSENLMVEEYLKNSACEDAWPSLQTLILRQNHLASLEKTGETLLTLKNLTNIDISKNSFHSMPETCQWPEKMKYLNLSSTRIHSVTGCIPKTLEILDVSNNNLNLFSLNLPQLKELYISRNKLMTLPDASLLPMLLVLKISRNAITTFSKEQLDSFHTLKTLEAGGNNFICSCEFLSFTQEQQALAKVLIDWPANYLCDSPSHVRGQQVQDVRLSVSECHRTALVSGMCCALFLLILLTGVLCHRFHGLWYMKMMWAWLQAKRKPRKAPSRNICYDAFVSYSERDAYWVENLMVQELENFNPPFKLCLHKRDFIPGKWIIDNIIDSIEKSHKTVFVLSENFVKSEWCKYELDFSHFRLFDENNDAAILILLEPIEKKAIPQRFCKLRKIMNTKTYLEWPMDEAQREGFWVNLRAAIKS
T3 sequence (Q9QUN7 25-784): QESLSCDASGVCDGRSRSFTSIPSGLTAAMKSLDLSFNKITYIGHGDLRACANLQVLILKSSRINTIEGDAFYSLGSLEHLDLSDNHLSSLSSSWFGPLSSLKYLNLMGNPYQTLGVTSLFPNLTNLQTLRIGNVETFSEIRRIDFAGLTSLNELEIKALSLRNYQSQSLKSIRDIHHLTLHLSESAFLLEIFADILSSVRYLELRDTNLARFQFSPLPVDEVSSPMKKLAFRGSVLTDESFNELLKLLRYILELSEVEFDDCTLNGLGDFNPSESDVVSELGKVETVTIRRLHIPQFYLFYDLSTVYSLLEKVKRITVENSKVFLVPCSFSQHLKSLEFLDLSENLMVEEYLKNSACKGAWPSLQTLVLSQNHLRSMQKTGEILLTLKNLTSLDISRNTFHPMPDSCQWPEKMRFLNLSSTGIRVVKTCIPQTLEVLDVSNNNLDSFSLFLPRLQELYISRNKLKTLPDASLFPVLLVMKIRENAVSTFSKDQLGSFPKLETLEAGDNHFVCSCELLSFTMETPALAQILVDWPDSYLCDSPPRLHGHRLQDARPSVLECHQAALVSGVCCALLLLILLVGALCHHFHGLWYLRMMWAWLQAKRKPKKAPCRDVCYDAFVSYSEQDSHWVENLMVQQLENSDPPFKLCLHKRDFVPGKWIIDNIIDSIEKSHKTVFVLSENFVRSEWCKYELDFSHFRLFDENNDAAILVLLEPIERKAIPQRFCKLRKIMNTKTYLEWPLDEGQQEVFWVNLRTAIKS

ability to activate TLR7 receptors (human TLR7) (human TLR7)	ability to activate TLR7 receptors (murine TLR7) (murine TLR7)	ability to activate TLR2 receptor (murine TLR2) (murine TLR2)	ability to activate TLR2 receptor (human TLR2) (human TLR2)	Structure (SMILES)	induction of NF-κB in RAW-Blue cells [1]
activate TLR7 receptors	activate TLR7 receptors	activate TLR2 receptor	activate TLR2 receptor	CCCCCCCCCCCCCC(=O)OCCSC[C@H](N)C(=O)N[C@@H](CO)C(=O)Nc1ccc(Cn2c(O)nc3c(N)nc(NCCCC)nc32)cc1 [CL558, 2-((R)-2-amino-3-((S)-1-(4-((6-amino-2-(butylamino)-8-hydroxy-9H-purin-9-yl)methyl)phenylamino)-3-hydroxy-1-oxopropan-2-ylamino)-3-oxopropylthio)ethyltetradecanoate]	activate NF-κB
activate TLR7 receptors	activate TLR7 receptors	activate TLR2 receptor	activate TLR2 receptor	CCCCCCCCCCCCCCCC(=O)OCCSC[C@H](N)C(=O)N[C@@H](CO)C(=O)Nc1ccc(Cn2c(O)nc3c(N)nc(NCCCC)nc32)cc1 [CL559, 2-((R)-2-amino-3-((S)-1-(4-((6-amino-2-(butylamino)-8-hydroxy-9H-purin-9-yl)methyl)phenylamino)-3-hydroxy-1-oxopropan-2-ylamino)-3-oxopropylthio)ethyl palmitate]	activate NF-κB
activate TLR7 receptors	activate TLR7 receptors	activate TLR2 receptor	activate TLR2 receptor	CCCCCCCCCCCCCCCCCC(=O)OCCSC[C@H](N)C(=O)N[C@@H](CO)C(=O)Nc1ccc(Cn2c(O)nc3c(N)nc(NCCCC)nc32)cc1 [CL560, 2-((R)-2-amino-3-((S)-1-(4-((6-amino-2-(butylamino)-8-hydroxy-9H-purin-9-yl)methyl)phenylamino)-3-hydroxy-1-oxopropan-2-ylamino)-3-oxopropylthio)ethyl stearate]	activate NF-κB
